According to the NIST ThermoML archive (doi:10.1021/je4004806):

Assay: xn = mol fraction of the nth substance listed
Settings: 101 kPa, Liquid; for viscosity: Capillary tube (Ostwald / Ubbelohde) method; for mass density: Vibrating tube method

CCCCCO [pentan-1-ol] + CCCCCCCC
Settings | mass density [kg/m3] | viscosity [mPa·s]
293.15 K, x2 = 0 | 814.59 | 4.042
293.15 K, x2 = 0.1004 | 798.43 | 2.938
293.15 K, x2 = 0.201 | 783.65 | 2.237
293.15 K, x2 = 0.3001 | 770.3 | 1.695
293.15 K, x2 = 0.4 | 757.91 | 1.311
293.15 K, x2 = 0.4984 | 746.71 | 1.046
293.15 K, x2 = 0.5967 | 736.39 | 0.863
293.15 K, x2 = 0.6976 | 726.7 | 0.737
293.15 K, x2 = 0.7983 | 717.79 | 0.652
293.15 K, x2 = 0.8998 | 709.68 | 0.588
298.15 K, x2 = 0 | 810.93 | 3.518
298.15 K, x2 = 0.1004 | 794.68 | 2.568
298.15 K, x2 = 0.201 | 779.81 | 1.972
298.15 K, x2 = 0.3001 | 766.39 | 1.509
298.15 K, x2 = 0.4 | 753.94 | 1.18
298.15 K, x2 = 0.4984 | 742.7 | 0.953
298.15 K, x2 = 0.5967 | 732.34 | 0.796
298.15 K, x2 = 0.6976 | 722.64 | 0.685
298.15 K, x2 = 0.7983 | 713.72 | 0.605
298.15 K, x2 = 0.8998 | 705.59 | 0.55
303.15 K, x2 = 0 | 807.24 | 3.06
303.15 K, x2 = 0.1004 | 790.89 | 2.254
303.15 K, x2 = 0.201 | 775.94 | 1.747
303.15 K, x2 = 0.3001 | 762.45 | 1.349
303.15 K, x2 = 0.4 | 749.95 | 1.068
303.15 K, x2 = 0.4984 | 738.67 | 0.873
303.15 K, x2 = 0.5967 | 728.27 | 0.736
303.15 K, x2 = 0.6976 | 718.55 | 0.638
303.15 K, x2 = 0.7983 | 709.62 | 0.567
303.15 K, x2 = 0.8998 | 701.48 | 0.516
308.15 K, x2 = 0 | 803.53 | 2.659
308.15 K, x2 = 0.1004 | 787.09 | 1.984
308.15 K, x2 = 0.201 | 772.05 | 1.564
308.15 K, x2 = 0.3001 | 758.49 | 1.219
308.15 K, x2 = 0.4 | 745.93 | 0.971
308.15 K, x2 = 0.4984 | 734.6 | 0.802
308.15 K, x2 = 0.5967 | 724.18 | 0.682
308.15 K, x2 = 0.6976 | 714.44 | 0.596
308.15 K, x2 = 0.7983 | 705.49 | 0.532
308.15 K, x2 = 0.8998 | 697.35 | 0.486
313.15 K, x2 = 0 | 799.79 | 2.334
313.15 K, x2 = 0.1004 | 783.26 | 1.755
313.15 K, x2 = 0.201 | 768.13 | 1.393
313.15 K, x2 = 0.3001 | 754.5 | 1.11
313.15 K, x2 = 0.4 | 741.88 | 0.882
313.15 K, x2 = 0.4984 | 730.52 | 0.738
313.15 K, x2 = 0.5967 | 720.07 | 0.636
313.15 K, x2 = 0.6976 | 710.3 | 0.557
313.15 K, x2 = 0.7983 | 701.34 | 0.499
313.15 K, x2 = 0.8998 | 693.2 | 0.457
318.15 K, x2 = 0 | 796.03 | 2.042
318.15 K, x2 = 0.1004 | 779.4 | 1.557
318.15 K, x2 = 0.201 | 764.17 | 1.249
318.15 K, x2 = 0.3001 | 750.47 | 1.01
318.15 K, x2 = 0.4 | 737.81 | 0.807
318.15 K, x2 = 0.4984 | 726.4 | 0.681
318.15 K, x2 = 0.5967 | 715.92 | 0.589
318.15 K, x2 = 0.6976 | 706.14 | 0.521
318.15 K, x2 = 0.7983 | 697.16 | 0.47
318.15 K, x2 = 0.8998 | 689.02 | 0.431
323.15 K, x2 = 0 | 792.23 | 1.805
323.15 K, x2 = 0.1004 | 775.5 | 1.389
323.15 K, x2 = 0.201 | 760.18 | 1.117
323.15 K, x2 = 0.3001 | 746.41 | 0.911
323.15 K, x2 = 0.4 | 733.69 | 0.74
323.15 K, x2 = 0.4984 | 722.24 | 0.63
323.15 K, x2 = 0.5967 | 711.74 | 0.549
323.15 K, x2 = 0.6976 | 701.94 | 0.488
323.15 K, x2 = 0.7983 | 692.95 | 0.442
323.15 K, x2 = 0.8998 | 684.81 | 0.406
